The numbers were not newly measured in US7928052B2, “Enzyme stabilization” (Dow Global Technologies LLC, priority 2004, dated 2011), which cites them from elsewhere.

Structures are written as SMILES.

Regarding `CC(O)C(=O)O` (centres unmarked) [lactic acid], the “K1, complexation constant B(OH)3+H2L⇄[1:1]−+H3O+” value (H2L is fully protonated lactic acid) was 1.8×10^−3. Besides, the “K1′, complexation constant B(OH)3+HL−⇄[1:1]−+H2O” value (pH 4 to about pH 10, lactic acid having lost a proton) is 9.0 M⁻¹.
